Measured values reported in article PMC7926627, “Fine-Tuning the Biological Profile of Multitarget Mitochondriotropic Antioxidants for Neurodegenerative Diseases” (Antioxidants, 2021).
Where “and” joins values, the source holds several entries; their conditions need not be identical. Equal values may be shown once. Read-outs that look alike come from different tables or passages of the source. Marks after values point to notes of the source that are not given here.

Experiments:
[1] = test system: differentiated SH-SY5Y cells; assay: Resazurin reduction assay (cytotoxicity); assay type: cell-based, human; details: 24 h, concentrations up to 100 µM
Method: For cytotoxicity studies, differentiated SH-SY5Y cells were incubated with increasing concentrations of the test compounds (0.20–100 µM) for 24 h. Controls were treated with culture media containing 0.1% DMSO. Cell viability was estimated using two different methods: resazurin reduction assay and NR uptake assay. […]
days. The cultures were passaged once a week by trypsinization (0.25 % trypsin/1 mM EDTA).
To avoid phenotypic changes, the cells used for all experiments were taken between 19th and 28th passages. Cells were differentiated as described previously by Fernandes et al.. Briefly, SH-SY5Y cells were seeded onto 96-well plates at a density of 25,000 cells/cm2 in cell culture medium with trans-retinoic acid (RA) (final concentration of 10 µM) and incubated for 3 days at 37 °C in a humidified, 5% CO2−95% air atmosphere. The cell culture medium was then removed and replaced with medium supplemented with 12-O-tetradecanoylphorbol-13-acetate (TPA) (final concentration 80 nM), and cells were incubated for 3 days. Stock solutions of RA (10 mM) and TPA (80 µM) were prepared in DMSO.
1.5.3. Cytotoxicity assays
1.5.3.1. Resazurin reduction assay
Resazurin is a non-fluorescent, non-toxic water-soluble dye able to permeate through cell […]
highly fluorescent resorufin [8, 9]. Since the conversion of resazurin into resorufin occurs mostly in mitochondria, the amount of resorufin produced can be used as indicator of metabolic activity. The quantity of resorufin production is proportional to the number of viable cells in culture and can be quantified fluorometrically or colorimetrically.
Resazurin reduction assay was performed as previously described by Fernandes et al..
Briefly, after the 24 h incubation periods with the test compounds, the cell culture medium was removed and replaced with fresh culture medium with resazurin (10 μg/mL) prepared in cell culture medium. Differentiated SH-SY5Y cells were incubated for 2 h at 37 °C in a humidified 5% CO2−95% air atmosphere. Then, the fluorescence was read in a multiwell microplate reader (PowerWave XS from BioTek Instruments, Vermont, US), using an excitation wavelength of 540 nm and an emission wavelength of 590 nm. The results were expressed as the percentage of resazurin reduction relative to that of the control (non-treated) cells [resazurin reduction (% of […]
1.5.3.2. Neutral red uptake assay
The neutral red (NR) uptake assay is based on the ability of viable cells to incorporate the supravital dye NR and retain it inside the lysosomes. NR uptake assay was performed as previously described by Fernandes et al. Briefly, after the 24 h incubation periods with the test compounds, the cell culture medium was removed and NR solution ([…]) in fresh cell culture medium was added. Differentiated SH-SY5Y cells and Caco-2 cells were incubated for 2 h and 1 h, respectively, at 37 °C in a humidified, 5% CO2−95% air atmosphere. Then, the cell culture medium was removed and replaced by ethanol absolute/distilled water (1:1) with 5 % acetic acid to liberate the dye from the viable cells. The absorbance was measured at 540 nm in a […]

[2] = biological target: T1, eqBChE (equine butyrylcholinesterase) (Equus caballus, UniProt P81908); design: method as in Benfeito et al. [22]; details: ref Benfeito et al. [22]; cited from earlier work
T1 construct: butyrylcholinesterase (eqBuChE, E.C. 3.1.1.8, from equine serum); purchased Sigma Aldrich; host or cells: equine serum

hMAO-A [3] = biological target: T2, hMAO-A (Homo sapiens, UniProt P21397); assay: hMAO-A inhibition, kynuramine substrate; assay type: biochemical
T2 construct: purchased Sigma Aldrich; host or cells: insect cells (BTI-TN-5B1-4), baculovirus
T2 sequence (P21397 1-527): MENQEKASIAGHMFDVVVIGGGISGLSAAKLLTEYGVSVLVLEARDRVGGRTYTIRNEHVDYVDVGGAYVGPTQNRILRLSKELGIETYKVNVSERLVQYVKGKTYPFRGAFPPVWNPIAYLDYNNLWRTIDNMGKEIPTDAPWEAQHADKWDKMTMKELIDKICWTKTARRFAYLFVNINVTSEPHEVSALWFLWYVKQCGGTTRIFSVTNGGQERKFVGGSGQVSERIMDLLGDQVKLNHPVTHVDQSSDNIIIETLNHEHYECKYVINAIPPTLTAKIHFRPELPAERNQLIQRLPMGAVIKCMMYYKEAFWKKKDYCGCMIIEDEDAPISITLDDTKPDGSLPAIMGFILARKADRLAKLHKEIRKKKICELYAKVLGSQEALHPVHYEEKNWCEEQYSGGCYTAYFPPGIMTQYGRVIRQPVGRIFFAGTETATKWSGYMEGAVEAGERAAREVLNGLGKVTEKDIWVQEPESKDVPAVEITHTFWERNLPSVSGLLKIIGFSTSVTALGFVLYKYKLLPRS
Method: (§1) The inhibitory activity of lipophilic TPP^+ cations on hMAO-A and hMAO-B was studied using an experimental protocol described elsewhere [29, 40]
(§2) Evaluation of human monoamine oxidase (hMAO) inhibitory activity The human monoamine oxidase (hMAO) inhibitory outline was assessed in microsomal MAO isoforms prepared from insect cells (BTI-TN-5B1-4) infected with recombinant baculovirus containing cDNA inserts for hMAO-A or hMAO-B an d by measuring the enzymatic conversion rates of kynuramine into 4-hydroxyquinoline. The appropriate amounts of hMAO-A and hMAO-B were adjusted to obtain, in our experimental conditions, the same maximum
(§3) All assays were performed in sodium phosphate buffer solution 50 mM pH 7.4.
(§4) The compounds under study and reference inhibitors were pre-incubated at 37 °C for 10
(§5) concentration: 2×Km) in 96-well microplates (BRANDplates, pureGradeTM, BRAND GMBH, Wertheim, Germany). Then, the reaction was started with the addition of hMAO-A or hMAO-B.
(§6) Initial velocities were determined spectrophotometrically in a microplate reader (BioTek Synergy HT from BioTek Instruments, Winooski, VT, USA) at 37 °C by measuring the formation of 4-
(§7) The initial velocities, obtained from the linear phase of product formation, were normalized and plotted against the respective inhibitor concentration. IC50 values were obtained from dose-response curves and were expressed as mean ± standard deviation. IC50 values were determined from at least three independent experiments, each performed in triplicate.

[4] = Chromatographic hydrophobicity index by gradient RP-HPLC at pH 2.3
Method: Chromatographic hydrophobicity indexes (CHIs) at pH 2.3 were determined using an experimental protocol described elsewhere [45, 46] and included in the supplementary information.
Evaluation of the chromatographic hydrophobicity index
Chromatographic hydrophobicity indexes (CHIs) values were determined using the
retention times (tR) of samples and a mixture of reference compounds. The data was acquired on
a Shimadzu high-performance liquid chromatograph SPD-M20A system (Shimadzu, Kyoto,
Japan) with a Luna C18 (2) column (Phenomenex, CA, USA) 150×4.6 mm, 5 µm. In CHI
determinations at pH 2.3, mobile phase A was aqueous solution of acetic acid 1 % (v/v) (pH 2.3),
and mobile phase B was acetonitrile. The following gradient program was applied: 1 mL/min
Calibration plots were obtained using a mixture of the following compounds:
paracetamol, theophylline, caffeine, benzimidazole, colchicine, carbamazepine, indole,
propiophenone, butyrophenone, valerophenone, and heptanophenone (Table S1, Figure S2).
hydrophobicity index (CHI) values were calculated as previously described [13, 14].

[5] = Oxygen radical absorbance capacity (ORAC-FL) assay; details: for ORAC-FL Index: relative Trolox equivalent ORAC value
[6] = test system: differentiated SH-SY5Y cells; assay: Neutral red (NR) uptake assay (cytotoxicity); assay type: cell-based, human; details: 24 h, increasing concentrations up to 100 µM
Method: To avoid phenotypic changes, the cells used for all experiments were taken between 19th and 28th passages. Cells were differentiated as described previously by Fernandes et al. [6]. Briefly, SH-SY5Y cells were seeded onto 96-well plates at a density of 25,000 cells/cm2 in cell culture medium with trans-retinoic acid (RA) (final concentration of 10 µM) and incubated for 3 days at
The neutral red (NR) uptake assay is based on the ability of viable cells to incorporate the supravital dye NR and retain it inside the lysosomes [11]. NR uptake assay was performed as previously described by Fernandes et al. [12] Briefly, after the 24 h incubation periods with the test compounds, the cell culture medium was removed and NR solution (50 mg/mL) in fresh cell culture medium was added. Differentiated SH-SY5Y cells and Caco-2 cells were incubated for 2
multiwell microplate reader (PowerWave XS from BioTek Instruments). The results were
expressed as the percentage of NR uptake relative to that of the control (non-treated) cells [NR
uptake (% of control)] ± standard error mean (SEM) of at least three independent experiments.
Stock solutions of the test compounds (10 µM) were prepared in DMSO and diluted in

hMAO-B [7] = biological target: T3, hMAO-B (Homo sapiens, UniProt P27338); assay: biochemical; design: purchased Sigma Aldrich; host or cells: insect cells (BTI-TN-5B1-4), baculovirus
T3 sequence (P27338 1-520): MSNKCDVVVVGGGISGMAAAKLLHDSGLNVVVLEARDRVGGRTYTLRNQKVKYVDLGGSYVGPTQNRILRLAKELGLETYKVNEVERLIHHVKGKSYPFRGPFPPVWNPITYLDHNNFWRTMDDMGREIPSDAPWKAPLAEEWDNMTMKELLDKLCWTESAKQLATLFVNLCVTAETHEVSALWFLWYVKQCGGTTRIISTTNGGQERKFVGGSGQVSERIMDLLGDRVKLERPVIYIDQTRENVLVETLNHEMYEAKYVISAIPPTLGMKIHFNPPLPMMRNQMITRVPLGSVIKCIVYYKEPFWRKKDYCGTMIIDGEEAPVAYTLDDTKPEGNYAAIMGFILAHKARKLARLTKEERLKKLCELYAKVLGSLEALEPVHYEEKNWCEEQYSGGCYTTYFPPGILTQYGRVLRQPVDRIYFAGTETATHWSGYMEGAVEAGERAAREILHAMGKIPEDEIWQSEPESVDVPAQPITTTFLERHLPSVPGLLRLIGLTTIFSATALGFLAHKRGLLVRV
Method: as §1, §2, §3, §4, §5, §6, §7

[8] = design: method as in Teixeira et al. [19],[20]; details: ref Teixeira et al. [19],[20]; cited from earlier work
[9] = biological target: T1, eqBChE (equine butyrylcholinesterase); assay: biochemical
Method: (§8) The eeAChE and eqBChE inhibitory activities of the compounds under study were determined following the Ellman’s method [32, 33]
(§9) Substrate solutions (ATCI or BCTI) were prepared in deionized water (conductivity ˂ 0.1 µS.cm-
(§10) Evaluation of eel acetylcholinesterase and equine butyrylcholinesterase inhibitory
(§11) The eeAChE and eqBChE inhibitory activities of the compounds under study were evaluated following the Ellman’s method [1, 2]. Briefly, a mixture containing sodium phosphate buffer, enzyme (final concentration: eeAChE 0.05 U/mL and eeBChE 0.05 U/mL), DTNB (final concentration: 400 µM) and the test compounds/reference inhibitors were preincubated for 5 minutes at 30 °C in a 96-well microplate (BRANDplates, pureGradeTM, BRAND GMBH, Wertheim, Germany). In control experiments, sodium phosphate buffer was used instead of the
(§12) ºC in a microplate reader (BioTek Synergy HT from BioTek Instruments, Winooski, VT, USA).
(§13) The rates of the substrate enzymatic hydrolysis were determined, normalized and plotted against the respective inhibitor concentration. IC50 values were obtained from the dose-response curves
(§14) and were expressed as mean ± standard deviation. IC50 values were determined in at least three
(§15) independent experiments, each performed at least in triplicates.

[10] = biological target: T4, eeAChE (electric eel acetylcholinesterase) (Electrophorus electricus, UniProt O42275); assay: eeAChE inhibition, Ellman's method; assay type: biochemical
T4 construct: Eel acetylcholinesterase (eeAChE, E.C. 3.1.1.7, from Electrophorus electricus); purchased Sigma Aldrich
Method: as §8, §9, §10, §11, §12, §13, §14, §15

[11] = design: method as in Camurri et al. [13]; details: standard mixture for calibration; ref Camurri et al. [13]; cited from earlier work
hMAO-B [12] = biological target: T3, hMAO-B; details: read-out: IC50 hMAO-B; ref Chavarria et al. [29]; cited from earlier work
hMAO-A [13] = biological target: T2, hMAO-A; design: method as in Chavarria et al. [29]; details: read-out: IC50 hMAO-A; ref Chavarria et al. [29]; cited from earlier work
[14] = test system: differentiated SH-SY5Y cells; details: at concentrations up to 50 µM; ref [58]; cited from earlier work

T1 sequence (P81908 whole entry): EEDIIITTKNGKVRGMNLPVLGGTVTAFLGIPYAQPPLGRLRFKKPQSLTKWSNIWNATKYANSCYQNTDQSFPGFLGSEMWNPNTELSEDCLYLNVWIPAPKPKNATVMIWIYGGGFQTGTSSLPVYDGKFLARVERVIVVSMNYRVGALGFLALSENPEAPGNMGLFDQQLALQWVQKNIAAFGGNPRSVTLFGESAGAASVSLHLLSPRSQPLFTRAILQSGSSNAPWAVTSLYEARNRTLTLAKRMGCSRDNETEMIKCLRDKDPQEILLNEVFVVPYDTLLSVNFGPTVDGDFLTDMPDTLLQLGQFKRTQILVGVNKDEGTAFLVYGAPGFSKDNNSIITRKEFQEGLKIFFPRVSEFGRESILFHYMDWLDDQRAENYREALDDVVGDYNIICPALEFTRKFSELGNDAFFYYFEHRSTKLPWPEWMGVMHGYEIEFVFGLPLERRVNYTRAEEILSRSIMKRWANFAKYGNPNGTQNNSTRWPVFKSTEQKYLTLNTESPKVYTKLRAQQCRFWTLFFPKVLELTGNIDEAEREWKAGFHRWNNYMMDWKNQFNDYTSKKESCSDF
T4 sequence (O42275 24-633): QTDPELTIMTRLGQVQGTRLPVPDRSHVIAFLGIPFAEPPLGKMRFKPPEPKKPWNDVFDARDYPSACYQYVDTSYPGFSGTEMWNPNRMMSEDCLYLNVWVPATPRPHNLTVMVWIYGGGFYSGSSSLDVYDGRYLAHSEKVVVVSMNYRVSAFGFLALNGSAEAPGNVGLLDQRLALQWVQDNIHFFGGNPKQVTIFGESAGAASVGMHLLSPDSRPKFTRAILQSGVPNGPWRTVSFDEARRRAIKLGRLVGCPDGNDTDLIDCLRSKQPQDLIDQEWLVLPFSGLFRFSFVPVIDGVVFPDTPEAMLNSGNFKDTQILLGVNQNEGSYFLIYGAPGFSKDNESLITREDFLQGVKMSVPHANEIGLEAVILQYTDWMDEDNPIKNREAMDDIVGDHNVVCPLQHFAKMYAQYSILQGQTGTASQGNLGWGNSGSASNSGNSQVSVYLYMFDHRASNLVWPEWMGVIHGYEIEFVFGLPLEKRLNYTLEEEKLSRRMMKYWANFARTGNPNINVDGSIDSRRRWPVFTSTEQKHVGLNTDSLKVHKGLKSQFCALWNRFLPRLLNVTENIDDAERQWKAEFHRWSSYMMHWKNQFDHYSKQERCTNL

O=C(/C=C/c1ccc(O)c(O)c1)NCCCCCC[P+](c1ccccc1)(c1ccccc1)c1ccccc1 [AntiOXCIN2, reference compound]
effect on resazurin reduction [1]: did not markedly affect
IC50 [2]: 124 ± 7 nM
SI (1): eqBChE selectivity index = IC50(eeAChE)/IC50(eqBChE) [2]: 51 ^d
IC50 (hMAO-A [3]): > 10 µM
inhibition at 10 µM (hMAO-A [3]): < 50%
CHI [4]: 37.9
ORAC-FL Index [5]: 2.8 ± 0.1
effect on NR uptake [6]: did not markedly affect
IC50 (hMAO-B [7]): > 10 µM
inhibition at 10 µM (hMAO-B [7]): < 50%
Ep (redox potential) [8]: 166 mV and 166 ^a mV

O=C(/C=C/c1ccc(O)c(O)c1)NCCCCCCCC[P+](c1ccccc1)(c1ccccc1)c1ccccc1 [AntiOXCIN3, reference compound]
effect on resazurin reduction [1]: did not markedly affect
SI (1): eqBChE selectivity index = IC50(eeAChE)/IC50(eqBChE) [9]: 16
IC50 ([9]; read-out: IC50 eqBChE): 325 ± 90 nM
IC50 (hMAO-A [3]): > 10 µM
inhibition at 10 µM (hMAO-A [3]): < 50%
CHI [4]: 41.4
IC50 [10]: 5.08 ± 0.22 µM
ORAC-FL Index [5]: 2.6 ± 0.1
effect on NR uptake [6]: did not markedly affect
IC50 (hMAO-B [7]): > 10 µM
inhibition at 10 µM (hMAO-B [7]): < 50%
Ep (redox potential) [8]: 164 mV and 164 ^a mV

c1ccc2[nH]cnc2c1 [Benzimidazole]
CHI0 pH 2.3 [11]: 6.30

CCCC(=O)c1ccccc1 [Butyrophenone]
CHI0 pH 2.3 [11]: 87.3

Cn1c(=O)c2c(ncn2C)n(C)c1=O [Caffeine]
CHI0 pH 2.3 [11]: 23.41

NC(=O)N1c2ccccc2C=Cc2ccccc21 [Carbamazepine]
CHI0 pH 2.3 [11]: 60.42

COc1cc2c(c(OC)c1OC)-c1ccc(OC)c(=O)cc1[C@@H](NC(C)=O)CC2 [Colchicine]
CHI0 pH 2.3 [11]: 43.9

O=C(C=CC=Cc1ccc2c(c1)OCO2)N1CCCCC1 [Compound 1, 1-[5-(1,3-benzodioxol-5-yl)-1-oxo-2,4-pentadienyl]piperidine]
IC50 (hMAO-B [12]): 1050 ± 80 nM
CHI [4]: 73.4
ROO• radical scavenging ([5]; ORAC-FL): unable to scavenge ROO• radicals
IC50 (hMAO-A [13]): > 10 µM
cytotoxic effects [14]: did not exhibit cytotoxic effects

CCCCCCC(=O)c1ccccc1 [Heptanophenone]
CHI0 pH 2.3 [11]: 112.1

c1ccc2[nH]ccc2c1 [Indole]
CHI0 pH 2.3 [11]: 72.1

CC(=O)Nc1ccc(O)cc1 [Paracetamol]
CHI0 pH 2.3 [11]: 18.77

CCC(=O)c1ccccc1 [Propiophenone]
CHI0 pH 2.3 [11]: 77.4

Cn1c(=O)c2[nH]cnc2n(C)c1=O [Theophyline]
CHI0 pH 2.3 [11]: 17.9

CCCCC(=O)c1ccccc1 [Valerophenone]
CHI0 pH 2.3 [11]: 96.4
